Key:
[1] = target: Cyclin-dependent kinase 18 (Homo sapiens) (UniProt Q07002); settings: Compound concentration 1000.0 nM
[2] = target: Aurora kinase C (Homo sapiens) (UniProt Q9UQB9); settings: Compound concentration 1000.0 nM
[3] = target: Cyclin-dependent kinase 11B (Homo sapiens) (UniProt P21127); settings: Compound concentration 1000.0 nM
[4] = target: G protein-coupled receptor kinase 3 (Homo sapiens) (UniProt P35626); settings: Compound concentration 1000.0 nM
[5] = target: STE20/SPS1-related proline-alanine-rich protein kinase (Homo sapiens) (UniProt Q9UEW8); settings: Compound concentration 1000.0 nM
[6] = target: MAP/microtubule affinity-regulating kinase 4 (Homo sapiens) (UniProt Q96L34); settings: Compound concentration 1000.0 nM
[7] = target: Bone morphogenetic protein receptor type-1A (Homo sapiens) (UniProt P36894); settings: Compound concentration 1000.0 nM
[8] = target: Serine/threonine-protein kinase TAO3 (Homo sapiens) (UniProt Q9H2K8); settings: Compound concentration 1000.0 nM
[9] = target: Calcium/calmodulin-dependent protein kinase kinase 2 (Homo sapiens) (UniProt Q96RR4); settings: Compound concentration 1000.0 nM
[10] = target: Epithelial discoidin domain-containing receptor 1 (Homo sapiens) (UniProt Q08345); settings: Compound concentration 1000.0 nM
[11] = target: Tyrosine-protein kinase JAK2 (Homo sapiens) (UniProt O60674); settings: Compound concentration 1000.0 nM
[12] = target: Tyrosine-protein kinase Fyn (Homo sapiens) (UniProt P06241); settings: Compound concentration 1000.0 nM
[13] = target: Serine/threonine-protein kinase PAK 6 (Homo sapiens) (UniProt Q9NQU5); settings: Compound concentration 1000.0 nM
[14] = target: Aurora kinase B (Homo sapiens) (UniProt Q96GD4); settings: Compound concentration 1000.0 nM
[15] = target: Serine/threonine-protein kinase RIO3 (Homo sapiens) (UniProt O14730); settings: Compound concentration 1000.0 nM
[16] = target: Serine/threonine-protein kinase WNK1 (Homo sapiens) (UniProt Q9H4A3); settings: Compound concentration 1000.0 nM
[17] = target: TGF-beta receptor type-1 (Homo sapiens) (UniProt P36897); settings: Compound concentration 1000.0 nM
[18] = test system: Receptor-type tyrosine-protein kinase FLT3 (Homo sapiens), P36888 [K663Q]; settings: Compound concentration 1000.0 nM
[19] = target: D(1B) dopamine receptor (Homo sapiens) (UniProt P21918); settings: Compound concentration 10.0 uM
[20] = target: Ephrin type-B receptor 6 (Homo sapiens) (UniProt O15197); settings: Compound concentration 1000.0 nM
[21] = target: Serine/threonine-protein kinase Nek3 (Homo sapiens) (UniProt P51956); settings: Compound concentration 1000.0 nM
[22] = target: RAC-gamma serine/threonine-protein kinase (Homo sapiens) (UniProt Q9Y243); settings: Compound concentration 1000.0 nM
[23] = target: Megakaryocyte-associated tyrosine-protein kinase (Homo sapiens) (UniProt P42679); settings: Compound concentration 1000.0 nM
[24] = target: Serine/threonine-protein kinase TBK1 (Homo sapiens) (UniProt Q9UHD2); settings: Compound concentration 1000.0 nM
[25] = target: Tyrosine-protein kinase receptor Tie-1 (Homo sapiens) (UniProt P35590); settings: Compound concentration 1000.0 nM
[26] = target: Cyclin-dependent kinase 11A (Homo sapiens) (UniProt Q9UQ88); settings: Compound concentration 1000.0 nM
[27] = target: Serine/threonine-protein kinase 35 (Homo sapiens) (UniProt Q8TDR2); settings: Compound concentration 1000.0 nM
[28] = target: Phosphorylase b kinase gamma catalytic chain, skeletal muscle/heart isoform (Homo sapiens) (UniProt Q16816); settings: Compound concentration 1000.0 nM
[29] = target: Casein kinase I isoform alpha-like (Homo sapiens) (UniProt Q8N752); settings: Compound concentration 1000.0 nM
[30] = target: SRSF protein kinase 1 (Homo sapiens) (UniProt Q96SB4); settings: Compound concentration 1000.0 nM
[31] = target: Tyrosine-protein kinase ABL2 (Homo sapiens) (UniProt P42684); settings: Compound concentration 1000.0 nM
[32] = target: Mitogen-activated protein kinase kinase kinase 20 (Homo sapiens) (UniProt Q9NYL2); settings: Compound concentration 1000.0 nM
[33] = target: Serine/threonine-protein kinase NIM1 (Homo sapiens) (UniProt Q8IY84); settings: Compound concentration 1000.0 nM
[34] = target: Ephrin type-B receptor 1 (Homo sapiens) (UniProt P54762); settings: Compound concentration 1000.0 nM
[35] = target: T1, Alpha-2A adrenergic receptor (Homo sapiens) (UniProt P08913); assay: alpha2A (h) Eurofins-Cerep Cellular and Nuclear Receptor Functional Assays; settings: Compound concentration 10.0 uM
T1 sequence (whole entry): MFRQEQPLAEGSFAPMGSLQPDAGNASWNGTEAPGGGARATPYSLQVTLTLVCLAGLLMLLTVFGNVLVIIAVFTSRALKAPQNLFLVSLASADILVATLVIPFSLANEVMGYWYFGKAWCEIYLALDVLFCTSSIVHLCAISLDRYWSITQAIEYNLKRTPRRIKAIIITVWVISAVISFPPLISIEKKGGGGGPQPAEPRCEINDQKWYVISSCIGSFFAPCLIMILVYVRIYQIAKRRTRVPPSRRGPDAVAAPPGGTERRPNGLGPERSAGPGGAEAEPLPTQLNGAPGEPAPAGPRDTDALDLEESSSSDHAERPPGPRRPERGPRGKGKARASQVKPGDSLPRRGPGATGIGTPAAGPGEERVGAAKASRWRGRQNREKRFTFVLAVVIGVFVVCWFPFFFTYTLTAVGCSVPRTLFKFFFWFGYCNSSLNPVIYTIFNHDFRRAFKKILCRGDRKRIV

[36] = target: Epidermal growth factor receptor (Homo sapiens) (UniProt P00533); settings: Compound concentration 1000.0 nM
[37] = target: Mitogen-activated protein kinase 3 (Homo sapiens) (UniProt P27361); settings: Compound concentration 1000.0 nM
[38] = target: Receptor-interacting serine/threonine-protein kinase 4 (Homo sapiens) (UniProt P57078); settings: Compound concentration 1000.0 nM
[39] = target: Serine/threonine-protein kinase ULK2 (Homo sapiens) (UniProt Q8IYT8); settings: Compound concentration 1000.0 nM

Chain of Tyrosine-protein kinase receptor Tie-1 (Homo sapiens) (P35590 whole entry): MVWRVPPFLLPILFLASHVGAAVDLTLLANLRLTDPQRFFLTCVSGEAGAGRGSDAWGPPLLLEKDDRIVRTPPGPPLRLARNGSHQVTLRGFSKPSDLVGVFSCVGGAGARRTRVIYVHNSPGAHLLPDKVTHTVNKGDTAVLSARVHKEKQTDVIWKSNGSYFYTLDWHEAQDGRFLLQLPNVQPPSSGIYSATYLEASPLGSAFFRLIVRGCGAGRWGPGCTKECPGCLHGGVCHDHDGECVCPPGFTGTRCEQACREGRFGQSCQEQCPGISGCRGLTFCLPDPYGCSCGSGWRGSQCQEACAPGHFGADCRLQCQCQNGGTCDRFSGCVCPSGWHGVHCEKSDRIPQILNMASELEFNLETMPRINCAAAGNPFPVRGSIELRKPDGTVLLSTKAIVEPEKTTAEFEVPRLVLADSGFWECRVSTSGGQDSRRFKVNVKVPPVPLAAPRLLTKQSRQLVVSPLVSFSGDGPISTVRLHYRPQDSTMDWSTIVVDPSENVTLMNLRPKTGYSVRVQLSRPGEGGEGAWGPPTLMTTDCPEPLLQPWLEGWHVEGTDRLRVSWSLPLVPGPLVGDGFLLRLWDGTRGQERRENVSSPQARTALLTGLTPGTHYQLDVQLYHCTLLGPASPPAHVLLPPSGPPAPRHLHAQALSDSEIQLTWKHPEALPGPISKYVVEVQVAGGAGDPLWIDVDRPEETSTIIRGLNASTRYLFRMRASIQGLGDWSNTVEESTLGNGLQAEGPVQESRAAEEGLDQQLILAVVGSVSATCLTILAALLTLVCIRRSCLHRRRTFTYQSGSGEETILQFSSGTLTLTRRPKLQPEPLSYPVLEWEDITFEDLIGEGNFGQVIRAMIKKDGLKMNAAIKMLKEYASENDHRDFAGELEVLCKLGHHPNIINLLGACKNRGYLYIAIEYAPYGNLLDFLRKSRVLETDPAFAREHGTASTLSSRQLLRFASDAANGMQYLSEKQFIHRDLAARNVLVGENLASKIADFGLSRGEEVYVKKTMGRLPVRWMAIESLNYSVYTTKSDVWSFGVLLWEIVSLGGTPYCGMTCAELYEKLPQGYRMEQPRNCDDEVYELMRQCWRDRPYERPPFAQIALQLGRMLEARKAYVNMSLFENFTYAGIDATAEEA
Chain of Tyrosine-protein kinase JAK2 (Homo sapiens) (O60674 whole entry): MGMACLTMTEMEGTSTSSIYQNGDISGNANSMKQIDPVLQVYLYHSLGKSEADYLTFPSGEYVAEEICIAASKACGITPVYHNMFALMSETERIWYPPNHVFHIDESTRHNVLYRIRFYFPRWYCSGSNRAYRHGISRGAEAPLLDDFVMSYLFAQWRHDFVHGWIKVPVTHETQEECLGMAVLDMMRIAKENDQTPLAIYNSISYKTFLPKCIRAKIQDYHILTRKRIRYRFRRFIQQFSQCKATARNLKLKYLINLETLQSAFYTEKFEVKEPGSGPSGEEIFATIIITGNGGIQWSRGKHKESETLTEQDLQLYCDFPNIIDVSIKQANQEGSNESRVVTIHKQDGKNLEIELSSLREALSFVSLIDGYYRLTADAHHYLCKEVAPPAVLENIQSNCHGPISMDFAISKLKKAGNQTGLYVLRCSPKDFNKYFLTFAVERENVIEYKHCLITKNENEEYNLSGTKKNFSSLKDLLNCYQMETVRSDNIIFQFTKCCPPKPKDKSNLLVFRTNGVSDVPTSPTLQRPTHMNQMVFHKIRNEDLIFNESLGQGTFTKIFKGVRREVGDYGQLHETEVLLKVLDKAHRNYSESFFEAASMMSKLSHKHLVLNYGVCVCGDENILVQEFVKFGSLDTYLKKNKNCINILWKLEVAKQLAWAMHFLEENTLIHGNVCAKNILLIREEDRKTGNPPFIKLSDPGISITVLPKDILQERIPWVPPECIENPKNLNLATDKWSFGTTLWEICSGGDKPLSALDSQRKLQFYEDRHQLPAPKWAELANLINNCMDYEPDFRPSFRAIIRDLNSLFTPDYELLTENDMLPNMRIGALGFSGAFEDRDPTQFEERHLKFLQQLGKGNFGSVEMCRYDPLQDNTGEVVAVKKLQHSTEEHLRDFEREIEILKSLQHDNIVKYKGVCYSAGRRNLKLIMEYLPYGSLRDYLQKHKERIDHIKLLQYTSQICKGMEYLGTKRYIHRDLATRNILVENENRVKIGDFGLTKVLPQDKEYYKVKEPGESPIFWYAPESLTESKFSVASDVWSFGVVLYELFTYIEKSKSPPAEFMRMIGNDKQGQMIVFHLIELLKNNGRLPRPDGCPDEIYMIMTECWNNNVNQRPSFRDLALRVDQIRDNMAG
Chain of Serine/threonine-protein kinase RIO3 (Homo sapiens) (O14730 whole entry): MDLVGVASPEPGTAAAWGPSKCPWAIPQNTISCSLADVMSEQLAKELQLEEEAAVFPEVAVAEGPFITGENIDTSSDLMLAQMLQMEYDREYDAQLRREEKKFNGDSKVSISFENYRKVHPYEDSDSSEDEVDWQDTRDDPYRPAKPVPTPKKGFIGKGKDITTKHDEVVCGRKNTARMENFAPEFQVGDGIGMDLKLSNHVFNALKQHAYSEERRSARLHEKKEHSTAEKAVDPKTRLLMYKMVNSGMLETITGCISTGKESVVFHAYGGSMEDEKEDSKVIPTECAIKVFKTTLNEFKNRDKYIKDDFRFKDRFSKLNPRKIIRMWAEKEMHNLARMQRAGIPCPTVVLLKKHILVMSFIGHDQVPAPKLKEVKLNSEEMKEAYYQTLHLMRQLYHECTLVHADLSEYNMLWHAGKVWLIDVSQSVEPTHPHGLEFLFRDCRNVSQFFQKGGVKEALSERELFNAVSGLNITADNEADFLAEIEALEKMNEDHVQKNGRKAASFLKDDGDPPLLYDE
Chain of Epidermal growth factor receptor (Homo sapiens) (P00533 whole entry): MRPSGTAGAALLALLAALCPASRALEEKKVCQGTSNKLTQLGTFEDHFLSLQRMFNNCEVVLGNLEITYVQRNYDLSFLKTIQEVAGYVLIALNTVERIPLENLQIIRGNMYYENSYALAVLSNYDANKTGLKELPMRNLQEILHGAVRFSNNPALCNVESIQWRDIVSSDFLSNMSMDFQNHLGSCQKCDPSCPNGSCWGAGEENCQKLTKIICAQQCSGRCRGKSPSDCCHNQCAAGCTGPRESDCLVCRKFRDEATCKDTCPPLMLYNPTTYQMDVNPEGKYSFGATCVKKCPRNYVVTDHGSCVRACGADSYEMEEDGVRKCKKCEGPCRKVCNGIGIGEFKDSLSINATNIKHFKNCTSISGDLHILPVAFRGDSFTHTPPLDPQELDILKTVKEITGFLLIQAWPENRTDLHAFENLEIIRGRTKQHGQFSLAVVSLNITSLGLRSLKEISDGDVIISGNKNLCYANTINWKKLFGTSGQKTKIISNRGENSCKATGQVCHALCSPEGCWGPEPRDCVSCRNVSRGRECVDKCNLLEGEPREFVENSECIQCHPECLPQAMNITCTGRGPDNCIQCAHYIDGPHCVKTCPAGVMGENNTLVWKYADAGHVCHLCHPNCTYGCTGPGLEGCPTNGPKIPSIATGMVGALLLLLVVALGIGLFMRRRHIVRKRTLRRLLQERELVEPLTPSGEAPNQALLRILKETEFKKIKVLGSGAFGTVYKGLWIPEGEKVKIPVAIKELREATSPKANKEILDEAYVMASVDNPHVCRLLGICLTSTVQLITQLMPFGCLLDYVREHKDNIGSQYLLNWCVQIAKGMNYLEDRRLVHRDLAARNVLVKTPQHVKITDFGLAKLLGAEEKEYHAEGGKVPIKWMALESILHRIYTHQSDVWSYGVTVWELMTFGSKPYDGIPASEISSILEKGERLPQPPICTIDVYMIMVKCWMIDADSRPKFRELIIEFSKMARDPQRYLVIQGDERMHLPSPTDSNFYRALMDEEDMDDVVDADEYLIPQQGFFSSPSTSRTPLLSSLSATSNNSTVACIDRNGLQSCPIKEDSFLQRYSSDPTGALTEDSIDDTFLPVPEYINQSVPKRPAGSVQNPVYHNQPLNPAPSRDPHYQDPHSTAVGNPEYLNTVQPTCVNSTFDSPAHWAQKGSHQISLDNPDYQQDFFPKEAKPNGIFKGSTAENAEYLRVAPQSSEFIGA
Chain of G protein-coupled receptor kinase 3 (Homo sapiens) (P35626 whole entry): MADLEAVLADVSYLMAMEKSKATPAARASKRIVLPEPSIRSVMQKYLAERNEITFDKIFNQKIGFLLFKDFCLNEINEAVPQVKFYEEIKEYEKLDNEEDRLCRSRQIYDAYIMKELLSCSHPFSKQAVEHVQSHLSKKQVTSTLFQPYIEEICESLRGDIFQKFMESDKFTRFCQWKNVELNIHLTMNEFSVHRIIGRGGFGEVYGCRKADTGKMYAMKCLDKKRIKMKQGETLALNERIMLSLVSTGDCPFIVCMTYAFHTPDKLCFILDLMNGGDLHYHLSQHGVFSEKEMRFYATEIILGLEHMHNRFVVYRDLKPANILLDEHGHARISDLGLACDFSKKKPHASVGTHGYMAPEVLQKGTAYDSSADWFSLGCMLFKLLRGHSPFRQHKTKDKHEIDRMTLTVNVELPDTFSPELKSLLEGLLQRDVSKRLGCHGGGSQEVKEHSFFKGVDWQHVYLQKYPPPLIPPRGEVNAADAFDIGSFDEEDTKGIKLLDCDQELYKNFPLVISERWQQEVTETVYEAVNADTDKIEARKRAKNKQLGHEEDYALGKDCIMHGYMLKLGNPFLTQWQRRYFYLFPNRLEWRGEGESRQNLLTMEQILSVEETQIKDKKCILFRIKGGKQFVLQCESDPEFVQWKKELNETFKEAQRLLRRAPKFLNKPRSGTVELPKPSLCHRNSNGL
Chain of Phosphorylase b kinase gamma catalytic chain, skeletal muscle/heart isoform (Homo sapiens) (Q16816 whole entry, looked up, canonical isoform): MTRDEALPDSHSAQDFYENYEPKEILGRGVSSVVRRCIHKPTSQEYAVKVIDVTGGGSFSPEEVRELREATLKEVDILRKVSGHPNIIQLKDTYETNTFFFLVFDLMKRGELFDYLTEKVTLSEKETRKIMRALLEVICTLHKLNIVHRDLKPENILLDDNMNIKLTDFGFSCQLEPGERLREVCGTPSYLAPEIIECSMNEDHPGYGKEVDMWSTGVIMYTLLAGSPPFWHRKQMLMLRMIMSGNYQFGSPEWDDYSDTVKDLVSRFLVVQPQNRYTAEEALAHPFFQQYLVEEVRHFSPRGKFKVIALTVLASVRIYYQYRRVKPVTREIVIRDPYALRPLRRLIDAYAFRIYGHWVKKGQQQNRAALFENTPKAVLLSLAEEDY

SMILES	residual activity [1] [%]	residual activity [2] [%]	residual activity [3] [%]	residual activity [4] [%]	residual activity [5] [%]	residual activity [6] [%]	residual activity [7] [%]	residual activity [8] [%]	residual activity [9] [%]	residual activity [10] [%]	residual activity [11] [%]	residual activity [12] [%]	residual activity [13] [%]	residual activity [14] [%]	residual activity [15] [%]	residual activity [16] [%]	residual activity [17] [%]	residual activity [18] [%]	inhibition [19] [%]	residual activity [20] [%]	also measured
O=C(N1CCS(=O)(=O)CC1)N1C[C@H](c2ccc(OC(F)(F)F)cc2)C[C@H](c2nc(C3CC3)no2)C1 [BAY-386]	0	99	100	100	100	100	89	100	100	100	75	80	100	100	85	100	100	100	9.95	100	residual activity [21]: 100%; residual activity [22]: 100%; residual activity [23]: 100%; residual activity [24]: 94%; residual activity [25]: 100%; residual activity [26]: 0%; residual activity [27]: 100%; residual activity [28]: 94%; residual activity [29]: 100%; residual activity [30]: 100%; residual activity [31]: 100%; residual activity [32]: 100%; residual activity [33]: 93%; residual activity [34]: 100%; % Inhibition of Control Agonist Response (Mean n=2) [35]: -1.7%; % of Control Agonist Response (Mean n=2) [35]: 6.3%; residual activity [36]: 100%; residual activity [37]: 94%; residual activity [38]: 97%; residual activity [39]: 75%
Cc1noc([C@H]2C[C@@H](c3ccc(C(F)(F)F)cc3)CN(C(=O)N3CCS(=O)(=O)C3)C2)n1 [BAY-448]	97	100	100	100	95	84	100	100	100	100	100	94	100	100	100	86	100	100	22.6	73	residual activity [21]: 73%; residual activity [22]: 100%; residual activity [23]: 100%; residual activity [24]: 68%; residual activity [25]: 89%; residual activity [26]: 100%; residual activity [27]: 99%; residual activity [28]: 100%; residual activity [29]: 100%; residual activity [30]: 100%; residual activity [31]: 100%; residual activity [32]: 87%; residual activity [33]: 100%; residual activity [34]: 100%; % Inhibition of Control Agonist Response (Mean n=2) [35]: -13.5%; % of Control Agonist Response (Mean n=2) [35]: 2.5%; residual activity [36]: 100%; residual activity [37]: 100%; residual activity [38]: 68%; residual activity [39]: 100%

From ChEMBL document CHEMBL4507269, “Data for DCP probe BAY-386” (2021)
